Data on 31 molecules can be found in patent US20090105251A1, “Renin inhibitors” (priority 2007, published 2009).

By IC50 is commonly meant the point on the concentration scale where inhibition reaches its midpoint.

Each structure is given as a SMILES string. Bounds are passed on as bounds.

The target in the assay is T1, Recombinant human renin (Homo sapiens, UniProt P00797).
T1 construct: isolate the active form (residues 67-406); made in house
T1 sequence (P00797 67-406): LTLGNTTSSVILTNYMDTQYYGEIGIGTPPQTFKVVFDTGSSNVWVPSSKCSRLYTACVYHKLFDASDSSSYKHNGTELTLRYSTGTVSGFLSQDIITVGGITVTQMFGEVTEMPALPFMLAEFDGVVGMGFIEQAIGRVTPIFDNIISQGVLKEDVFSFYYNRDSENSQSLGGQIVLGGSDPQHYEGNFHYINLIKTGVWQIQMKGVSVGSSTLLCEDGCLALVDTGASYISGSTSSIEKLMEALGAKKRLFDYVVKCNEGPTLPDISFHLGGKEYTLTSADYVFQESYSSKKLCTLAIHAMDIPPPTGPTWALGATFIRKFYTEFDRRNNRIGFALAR
As to the kind of experiment: In vitro enzymatic activity assay of renin inhibitors (fluorogenic peptide substrate). In kind it is biochemical. To be noted: recombinant human renin 3 nM, 1 μM substrate QXL520/HiLyteFluo488 peptide, pH 7.4, 37° C., fluorescence; values given as ranges; read-out: IC50 of Exemplified Compounds Against Renin, IC50. From the text: Test compounds in varying concentrations may be reacted with recombinant human renin in the presence of substrate, e.g., QXL520-γ-Abu-Ile-His-Pro-Phe-His-Leu-Val-Ile-His-Thr-Lys (HiLyteFluo488)-Arg-OH (Anaspec, San Jose, Calif.). The reaction can be followed kinetically using fluorescence (excitation λ=485 nm; emission λ=538 nm). Inhibition constants (IC50) may be calculated by non-linear curve fitting of the compound concentrations and fluorescence intensities to the standard IC50 equation.
Solutions of test compounds in varying concentrations (≦2 mM final concentration) are prepared in dimethyl sulfoxide (DMSO) and then diluted into assay buffer comprising 50 mM Hepes, 1 mM EDTA, 1 mM DTT, 0.1 mg/ml BSA, 0.01% Brij35, pH 7.4. Alternatively, the assay can be performed with a high BSA concentration, wherein the buffer contains an additional 2% BSA.
Recombinant human renin (3 nM final concentration) is added to the dilutions and pre-incubated with the compounds for 10 minutes at 37° C. As described in Examples A-C above, human renin can be obtained by expressing preprorenin (residue 1-406) in mammalian cells, treating the prorenin (residues 24-406) contained in the culture supernatant with trypsin, and isolate the active form (residues 67-406). After pre-incubation, the reaction is initiated with 1 μM of substrate QXL520-γ-Abu-Ile-His-Pro-Phe-His-Leu-Val-Ile-His-Thr-Lys (HiLyteFluo488)-Arg-OH (Anaspec, San Jose, Calif.). The final DMSO in the assay is 5%. The total volume of the reaction mixture is 20 μL, which can be placed on Greiner 384-well small volume plates.
Renin activity may be determined via fluorescence (excitation λ=485 nm; emission λ=538 nm), e.g., on a Molecular Devices SPECTROmax GEMINI XPS. The fluorescence intensity is determined upon the addition of substrate and determined again after incubation at 37° C. for one hour. The fluorescence intensity of a blank (no inhibition) using vehicle alone is also determined. Renin activity is linearly proportional to the change in fluorescence observed (final−initial).
The percent inhibition of renin at a given compound concentration is defined as:
100%×[1−(Fcompound/Fblank)]
where Fcompound is the observed fluorescence at a given concentration of test compound and Fblank is the observed fluorescence in the presence of vehicle alone.
The pIC50 value (negative log of the molar concentration of the compound that produces 50% inhibition) of a test compound is calculated by non-linear least squares curve fitting of the equation:
Percent Inhibition=100%/(1+(10^−pIC50/10^log [I]))
to percent inhibition versus compound concentration. The 50% inhibitory concentration (IC50) of a test compound is calculated by raising 10 to the negative pIC50 (10^−pIC50).
Regarding `O=C(C1CC1c1ccccc1)N1CCNCC1Cc1ccccc1` (stereo in doubt) [Example 2, ((S)-2-benzylpiperazin-1-yl)(2-phenylcyclopropyl)methanone], the 50% inhibitory concentration (IC50) was above 100 µM. On to `O=C(c1ccc(-c2ccccc2Oc2ccccc2)o1)N1CCNC[C@H]1Cc1ccccc1` [Example 45, (R)-(2-benzylpiperazin-1-yl)(5-(2-phenoxyphenyl)furan-2-yl)methanone], for which the 50% inhibitory concentration (IC50) lay within 1 to 50 µM. Regarding `O=C(c1sccc1-c1ccccc1Oc1ccccc1)N1CCNC[C@H]1Cc1ccccc1` [Example 1, ((R)-2-benzylpiperazin-1-yl)(3-(2-phenoxyphenyl)thiophen-2-yl)methanone], the half-inhibitory concentration (IC50) is below 1 µM. Regarding `O=C(c1ccnn1-c1ccccc1)N1CCNC[C@H]1Cc1ccccc1` [Example 6, (R)-(2-benzylpiperazin-1-yl)(1-phenyl-1H-pyrazol-5-yl)methanone], the half-maximal inhibitory concentration (IC50) was 1 to 50 µM.

For the molecule `O=C(c1ccc(-c2ccccc2Oc2ccccc2)s1)N1CCNC[C@H]1Cc1ccccc1` [Example 44, (R)-(2-benzylpiperazin-1-yl)(5-(2-phenoxyphenyl)thiophen-2-yl)methanone], the half-inhibitory concentration (IC50) was 1 to 50 µM. Turning to `CC(=O)NCCc1ccccc1Oc1ccccc1-c1ccsc1C(=O)N1CCNC[C@H]1Cc1ccccc1` [Example 39, N-(2-(2-(2-((R)-2-benzylpiperazine-1-carbonyl)thiophen-3-yl)phenoxy)phenethyl)acetamide], the half-maximal inhibitory concentration (IC50) is below 1 µM. The same measure for `COc1ccc(C(=O)c2ccccc2C(=O)N2CCNC[C@H]2Cc2ccccc2)cc1` [Example 25, (R)-(2-benzylpiperazin-1-yl)(2-(4-methoxybenzoyl)phenyl)methanone]: 50 to 100 µM; for `O=C(c1ccccc1OCc1ccccc1)N1CCNC[C@H]1Cc1ccccc1` [Example 23, (R)-(2-(benzyloxy)phenyl)(2-benzylpiperazin-1-yl)methanone]: 1 to 50 µM; for `CC1(C)Cc2cccc(C(=O)N3CCNC[C@H]3Cc3ccccc3)c2O1` [Example 35, (R)-(2-benzylpiperazin-1-yl)(2,2-dimethyl-2,3-dihydrobenzofuran-7-yl)methanone]: 1 to 50 µM. As for `Cc1oc(-c2ccccc2)nc1Cn1nc(C(=O)N2CCNC[C@H]2Cc2ccccc2)c2ccccc21` [Example 37, (R)-(2-benzylpiperazin-1-yl)(1-((5-methyl-2-phenyloxazol-4-yl)methyl)-1H-indazol-3-yl)methanone], the concentration for half-maximal inhibition (IC50) was 1 to 50 µM. In the case of `Cn1cc(-c2ccccc2Oc2ccccc2)c(C(=O)N2CCNC[C@H]2Cc2ccccc2)n1` [Example 17, ((R)-2-benzylpiperazin-1-yl)(1-methyl-4-(2-phenoxyphenyl)-1H-pyrazol-3-yl)methanone], the half-inhibitory concentration (IC50) was below 1 µM.

In the case of `O=C(c1nc(-c2cccnc2)sc1-c1ccccc1)N1CCNC[C@H]1Cc1ccccc1` [Example 30, (R)-(2-benzylpiperazin-1-yl)(5-phenyl-2-(pyridin-3-yl)thiazol-4-yl)methanone], the IC50 fell in the range of 1 to 50 µM. Consider `N#Cc1cccnc1Oc1ccccc1-c1ccsc1C(=O)N1CCNC[C@H]1Cc1ccccc1` [Example 11, 2-(2-(2-((R)-2-benzylpiperazine-1-carbonyl)thiophen-3-yl)phenoxy)nicotinonitrile], for which the IC50 lay within 1 to 50 µM. Consider `O=C(c1cc(-c2ccccc2Oc2ccccc2)cs1)N1CCNC[C@H]1Cc1ccccc1` [Example 43, (R)-(2-benzylpiperazin-1-yl)(4-(2-phenoxyphenyl)thiophen-2-yl)methanone], for which the IC50 is 1 to 50 µM. For the molecule `CC(C)(C)n1ncc(C(=O)N2CCNC[C@H]2Cc2ccccc2)c1-c1ccccc1` [Example 38, (R)-(2-benzylpiperazin-1-yl)(1-tert-butyl-5-phenyl-1H-pyrazol-4-yl)methanone], the IC50 is 1 to 50 µM. Take `O=C(c1ccccc1-c1ccccc1Cl)N1CCNC[C@H]1Cc1ccccc1` [Example 5, ((R)-2-benzylpiperazin-1-yl)(2′-chlorobiphenyl-2-yl)methanone]: the IC50 was 1 to 50 µM.

`Cc1n[nH]c(C)c1-c1ccccc1C(=O)N1CCNC[C@H]1Cc1ccccc1` [Example 28, ((R)-2-benzylpiperazin-1-yl)(2-(3,5-dimethyl-1H-pyrazol-4-yl)phenyl)methanone]: the IC50 is above 100 µM. Take `CCn1nc(C)c(-c2ccccc2Oc2ccccc2)c1C(=O)N1CCNC[C@H]1Cc1ccccc1` [Example 14, ((R)-2-benzylpiperazin-1-yl)(1-ethyl-3-methyl-4-(2-phenoxyphenyl)-1H-pyrazol-5-yl)methanone]: the IC50 is 1 to 50 µM.

For the molecule `O=C(c1ccccc1-c1ccc(F)cc1)N1CCNC[C@H]1Cc1ccccc1` [Example 31, (R)-(2-benzylpiperazin-1-yl)(4′-fluorobiphenyl-2-yl)methanone], the IC50 was in the range of 1 to 50 µM. `O=C(c1ncoc1-c1ccccc1)N1CCNC[C@H]1Cc1ccccc1` [Example 7, (R)-(2-benzylpiperazin-1-yl)(5-phenyloxazol-4-yl)methanone]: the 50% inhibitory concentration (IC50) lay within 1 to 50 µM. For the molecule `O=C(c1sccc1-c1cnn(Cc2ccccc2)c1)N1CCNC[C@H]1Cc1ccccc1` [Example 18, (R)-(3-(1-benzyl-1H-pyrazol-4-yl)thiophen-2-yl)(2-benzylpiperazin-1-yl)methanone], the 50% inhibitory concentration (IC50) was in the range of 1 to 50 µM. The same measure for `O=C(c1cncn1-c1cccc2ccccc12)N1CCNC[C@H]1Cc1ccccc1` [Example 26, ((R)-2-benzylpiperazin-1-yl)(1-(naphthalen-1-yl)-1H-imidazol-5-yl)methanone]: above 100 µM.

As to `Cc1noc(-c2ccccc2)c1C(=O)N1CCNC[C@H]1Cc1ccccc1` [Example 29, (R)-(2-benzylpiperazin-1-yl)(3-methyl-5-phenylisoxazol-4-yl)methanone], the IC50 is 50 to 100 µM. With `O=C(c1ccsc1-c1ccccc1CN1CCOCC1)N1CCNC[C@H]1Cc1ccccc1` [Example 41, ((R)-2-benzylpiperazin-1-yl)(2-(2-(morpholinomethyl)phenyl)-thiophen-3-yl)methanone], the IC50 fell in the range of 1 to 50 µM. On to `CC(=O)NCc1cccnc1Oc1ccccc1-c1ccsc1C(=O)N1CCNC[C@H]1Cc1ccccc1` [Example 40, N-((2-(2-(2-((R)-2-benzylpiperazine-1-carbonyl)thiophen-3-yl)phenoxy)pyridin-3-yl)methyl)acetamide], for which the IC50 was in the range of 1 to 50 µM. Consider `O=C(c1ccccc1-c1ccccc1)N1CCNC[C@H]1Cc1ccccc1` [Example 4, (R)-(2-benzylpiperazin-1-yl)(biphenyl-2-yl)methanone], for which the half-inhibitory concentration (IC50) was in the range of 1 to 50 µM. Turning to `O=C(c1ccccc1)c1ccccc1C(=O)N1CCNC[C@H]1Cc1ccccc1` [Example 22, (R)-(2-benzoylphenyl)(2-benzylpiperazin-1-yl)methanone], the concentration for half-maximal inhibition (IC50) was in the range of 1 to 50 µM. Regarding `O=C(c1ccsc1-c1ccccc1-c1ccccc1)N1CCNC[C@H]1Cc1ccccc1` [Example 19, ((R)-2-benzylpiperazin-1-yl)(2-(biphenyl-2-yl)-thiophen-3-yl)-methanone], the IC50 fell in the range of 1 to 50 µM.

Consider `O=C(c1cc(-c2ccc(Cl)cc2)cs1)N1CCNC[C@H]1Cc1ccccc1` [Example 36, (R)-(2-benzylpiperazin-1-yl)(4-(4-chlorophenyl)thiophen-2-yl)methanone], for which the IC50 was in the range of 1 to 50 µM. To `O=C(c1c(-c2ccccc2Cl)noc1C1CC1)N1CCNC[C@H]1Cc1ccccc1` [Example 33, ((R)-2-benzylpiperazin-1-yl)(3-(2-chlorophenyl)-5-cyclopropylisoxazol-4-yl)methanone] belongs 1 to 50 µM. As for `Cc1ccc(-c2ccccc2C(=O)N2CCNC[C@H]2Cc2ccccc2)cc1C` [Example 3, (R)-(2-benzylpiperazin-1-yl)(3′,4′-dimethylbiphenyl-2-yl)methanone], the IC50 is below 1 µM.
